The results in this text go back to patent US20050004200A1, “Pyrazole compounds as integrin receptor antagonists derivatives” (Pharmacia Corporation, priority 2002, published 2005).

Read-outs that look alike come from different tables or passages of the source.

A short description of data set [1]: plasma level upon oral dosing (AUC-PO). Particulars: plasma AUC normalised to dose.
The conditions of data set [2]: in vivo.

`COc1ccc(C(CC(=O)O)Cc2cc(OCCc3ccc4c(n3)NCCN4C)n(C)n2)cn1` (centres unmarked) [Example 7, 3-(6-methoxypyridin-3-yl)-4-{1-methyl-5-[2-(1-methyl-1,2,3,4-tetrahydropyrido[2,3-b]pyrazin-6-yl)ethoxy]-1H-pyrazol-3-yl}butanoic acid]: in data set [1], the “Rat AUC-PO/dose” value was determined as 0.8 µg·h/mL/mg/kg.

For `COc1ccc(C(CC(=O)O)Cc2cc(OCCc3ccc4c(n3)NCCC4)n(CC(F)(F)F)n2)cn1` (centres unmarked) [Example 23, 3-(6-methoxypyridin-3-yl)-4-[5-[2-(5,6,7,8-tetrahydro-1,8-naphthyridin-2-yl)ethoxy]-1-(2,2,2-trifluoroethyl)-1H-pyrazol-3-yl]butanoic acid], the “Rat AUC-PO/dose” value in data set [1] came to 0.8 µg·h/mL/mg/kg.

Take `Cn1nc(CC(CC(=O)O)c2ccc3c(c2)OCO3)cc1SCCc1ccc2c(n1)NCCC2` (centres unmarked) [Example 3, 3-(1,3-benzodioxol-5-yl)-4-(1-methyl-5-{[2-(5,6,7,8-tetrahydro-1,8-naphthyridin-2-yl)ethyl]thio}-1H-pyrazol-3-yl)butanoic acid]: the “Rat AUC-PO/dose” value in data set [1] was determined as 2.2 µg·h/mL/mg/kg.

`Cn1nc(CC(CC(=O)O)c2cnc(-c3ccc(Cl)cc3)s2)cc1OCCc1ccc2c(n1)NCCC2` (centres unmarked) [Example 2, 3-[2-(4-chlorophenyl)-1,3-thiazol-5-yl]-4-{1-methyl-5-[2-(5,6,7,8-tetrahydro-1,8-naphthyridin-2-yl)ethoxy]-1H-pyrazol-3-yl}butanoic acid]: the “Rat AUC-PO/dose” value in data set [1] was 1 µg·h/mL/mg/kg.

`Cn1nc(CC(CC(=O)O)c2ccc3c(c2)OCO3)cc1OCCc1ccc2c(n1)NCCN2` (centres unmarked) [Example 25, 3-(1,3-benzodioxol-5-yl)-4-{1-methyl-5-[2-(1,2,3,4-tetrahydropyrido[2,3-b]pyrazin-6-yl)ethoxy]-1H-pyrazol-3-yl}butanoic acid]: the “Rat AUC-PO/dose” value in data set [1] was 0.4 µg·h/mL/mg/kg.

Turning to `Cc1cc(CCOc2cc(CC(CC(=O)O)c3ccc4c(c3)OCO4)nn2C)nc2c1CCCN2` (centres unmarked) [Example 32, 3-(1,3-Benzodioxol-5-yl)-4-{1-methyl-5-[2-(4-methyl-5,6,7,8-tetrahydro-1,8-naphthyridin-2-yl)ethoxy]-1H-pyrazol-3-yl}butanoic acid], the “Rat AUC-PO/dose” value in data set [1] is 2.2 µg·h/mL/mg/kg.

In the case of `CN1CCNc2nc(CCOc3cc(CC(CC(=O)O)c4ccc5c(c4)OCO5)nn3C)ccc21` (centres unmarked) [Example 31, 3-(1,3-benzodioxol-5-yl)-4-{1-methyl-5-[2-(1-methyl-1,2,3,4-tetrahydropyrido[2,3-b]pyrazin-6-yl)ethoxy]-1H-pyrazol-3-yl}butanoic acid], the “Rat AUC-PO/dose” value in data set [1] amounted to 1.9 µg·h/mL/mg/kg.

`Cn1nc(CC(CC(=O)O)c2ccc3c(c2)OCO3)cc1OCCc1ccc2c(n1)NCCC2` (centres unmarked) [Example 1, 3-(1,3-benzodioxol-5-yl)-4-{1-methyl-5-[2-(5,6,7,8-tetrahydro-1,8-naphthyridin-2-yl)ethoxy]-1H-pyrazol-3-yl}butanoic acid]: in data set [1], the “Rat AUC-PO/dose” value came out at 0.9 µg·h/mL/mg/kg.

`O=C(O)CC(Cc1cc(OCCc2ccc3c(n2)NCCC3)n(-c2ccccc2)n1)c1ccc2c(c1)OCO2` (centres unmarked) [Example 21, 3-(1,3-benzodioxol-5-yl)-4-{1-phenyl-5-[2-(5,6,7,8-tetrahydro-1,8-naphthyridin-2-yl)ethoxy]-1H-pyrazol-3-yl}butanoic acid]: in data set [1], the “Rat AUC-PO/dose” value is 1.7 µg·h/mL/mg/kg.

Consider `Cl.Cn1nc(CC(CC(=O)O)c2cnc(C3CC3)s2)cc1OCCc1ccc2c(n1)NCCC2` (centres unmarked) [Example 6, 3-(2-cyclopropyl-1,3-thiazol-5-yl)-4-{1-methyl-5-[2-(5,6,7,8-tetrahydro-1,8-naphthyridin-2-yl)ethoxy]-1H-pyrazol-3-yl}butanoic acid], for which the “Rat AUC-PO/dose” value in data set [1] amounted to 1.1 µg·h/mL/mg/kg.

On to `Cn1nc(CC(CC(=O)O)c2ccc3c(c2)OCO3)cc1S(=O)(=O)CCc1ccc2c(n1)NCCC2` (centres unmarked) [Example 4, 3-(1,3-benzodioxol-5-yl)-4-(1-methyl-5-{[2-(5,6,7,8-tetrahydro-1,8-naphthyridin-2-yl)ethyl]sulfonyl}-1H-pyrazol-3-yl)butanoic acid], for which the “Rat AUC-PO/dose” value in data set [1] is 0.7 µg·h/mL/mg/kg.

Consider “3-(1,3-benzodioxol-5-yl)-4-[5-[2-(1-methyl-1,2,3,4-tetrahydropyrido[2,3-b]pyrazin-6-yl)ethoxy]-1-(2,2,2-trifluoroethyl)-1H-pyrazol-3-yl]butanoic acid [Example 27]”, for which the “Rat AUC-PO/dose” value in data set [2] is 2 µg·h/mL/mg/kg.

For the compound `CNc1cccc(CCOc2cc(CC(CC(=O)O)c3ccc4c(c3)OCO4)nn2C)n1` (centres unmarked) [Example 8, 3-(1,3-benzodioxol-5-yl)-4-(1-methyl-5-{2-[6-(methylamino)pyridin-2-yl]ethoxy}-1H-pyrazol-3-yl)butanoic acid], the “Rat AUC-PO/dose” value in data set [1] turned out to be 0.7 µg·h/mL/mg/kg.

`O=C(O)CC(Cc1cc(OCCc2ccc3c(n2)NCCN3)n(CC(F)(F)F)n1)c1ccc2c(c1)OCO2` (centres unmarked) [Example 26, 3-(1,3-benzodioxol-5-yl)-4-[5-[2-(1,2,3,4-tetrahydropyrido[2,3-b]pyrazin-6-yl)ethoxy]-1-(2,2,2-trifluoroethyl)-1H-pyrazol-3-yl]butanoic acid]: the “Rat AUC-PO/dose” value in data set [1] was found to be 0.9 µg·h/mL/mg/kg.
